The target of one assay is p97 ND1 fragment. The settings on record: read-out: reported affinity of ADP, cited from earlier work.
For assay [1], the target named is T1, p97-ND1 (Homo sapiens, UniProt P55072).
T1 construct: His6 (TEV protease-cleavable) (N); made in house
Briefly: BLI dose-response binding to the p97-ND1 construct. The text has this: As starting point for the initial screen, a BLI binding assay was developed with a p97-ND1 construct (amino acids 2-481) to allow validation with adenosine diphosphate (ADP) as a positive control. The p97-ND1 construct was enzymatically biotinylated via an Avi-Tag and Escherichia coli biotin ligase[28] and loaded to high response (>5 nm) on Super Streptavidin Biosensors (SSA), yielding a homogeneous sensor surface. […] The kinetic analysis of the sensorgrams indicated a clear 1:1 binding model for ADP. […] Another surprising result were the high responses upon ADP-binding with shifts over 0.7 nm. These high values indicate that the BLI signal is not only dependent on the molar weight as in SPR but may also reflect conformational changes induced in p97 upon ADP binding.
For 12 fragments, a dose-dependent binding was observed and a 1:1 Langmuir model could be applied to obtain the respective KD value. The determined KD^(p97-ND1) values mostly agreed well with those previously determined for the respective fragments with the isolated N-domain. […] TROLL1 and VIK40 were therefore not considered further.
(§1) Protein constructs for BLI measurements were enzymatically biotinylated using BirA[28]. Biotinylated p97 was loaded on Super Streptavidin Biosensors (SSA) obtained from Sartorius as follows. SSA-sensors were equilibrated in PBS-buffer, loaded with a protein solution containing 50 µg/mL (p97-ND1) or 100 µg/mL (p97-N) protein, blocked with biocytin and washed in PBS buffer. Reference SSA-sensors were set up by blocking them with a 10 µg/mL biocytin solution for 5 min[27]. The SSA-sensors were loaded to a shift of up to 7 nm with p97-ND1 and 10 nm with p97-N, respectively.
(§2) Screening plates were prepared by adding 10 µL of a 10 mM DMSO stock solution of library compound to 190 µL of PBS buffer (containing 0.05% TWEEN 20, 1 mM DTT and 5 mM MgCl2 [only for p97-ND1]) in 96 well plates (Greiner). The final DMSO concentration was 5% (v/v). All BLI measurements were performed on an Octet RED96e (Sartorius) device.
(§3) Selected fragments of the initial screenings were confirmed by dose-response-titrations using six concentrations ranging from 1000 to 31.3 µM in a 1:1 dilution series. Every concentration was measured twice. The assay settings were as follows: baseline measurement 15 s; association time 120 s and dissociation time 180 s. The double referenced data were further analyzed in Origin Pro to estimate the affinity by fitting the signals of the steady states to a 1:1 Langmuir model. For the fitting all measured data points (n = 2) were considered.

Assay [2] addresses T1, p97-ND1. Briefly: STD-NMR with p97-ND1 in the presence of 500 µM ADP. In kind it is binding. On the set-up: key to mean STD-effect (ND1) / maximum STD-effect (ND1): STD effect = Idiff/Ioff × 100 (%). Particulars: for maximum STD-effect (ND1) / mean STD-effect (ND1): Supplementary Table 3; for STD (maximum STD signal measured with p97-ND1): aromatic resonances, 428 µM fragment, 30 µM protein, 500 µM ADP. The procedure: The NMR measurements were carried out with the biologically more relevant p97-ND1 construct in the presence of 500 µM ADP to block the nucleotide binding site. The STD effect was calculated by dividing the intensity of the difference spectrum by the intensity of the off-spectrum (Idiff/ Ioff × 100) for each signal. For further analysis only resonances in the aromatic region of the ^1H NMR spectrum of the individual ligand were considered. A mean STD effect of each fragment interacting with p97-ND1 was calculated using the sum of the individual STD effects divided by the number of signals considered. Furthermore, the maximum STD effect of each compound was determined. […] Similar results were obtained in the previously reported fragment screen with p97[26]. An overview of the STD effects is shown in Supplementary Fig. 4.
All Saturation-Transfer-Difference (STD)[32] measurements were performed on a Bruker Avance III 400 MHz spectrometer (Karlsruhe, Germany) operating at 400.13 MHz with a PABBI 1H/D-BB Z-GRD inverse probe at 300 K adjusted with a BSVT (Bruker) temperature control unit. Temperature calibration was carried out with 99.8% CD3OD (282–330 K). The stddiffesgp.3 pulse program from the Bruker pulseprogram library was used for data acquisition. The suppression of the HDO signal (4.703 ppm) was achieved by the excitation sculpting method. The saturation frequency for the on- and off-resonances was set to −400 Hz and −16,000 Hz, respectively. The saturation time was 3 s with a relaxation delay D1 of 4 s.
The protein stock solutions were transferred to a deuterated buffer containing 35 mM potassium phosphate and 25 mM NaCl in D2O at a pD of 7.5 using 0.5 mL Centricon devices (Merck Millipore) with a MWCO of 30 kDa by washing and centrifuging several times at 10,000 × g and 4 °C. Buffer-exchanged protein was adjusted to a concentration of 30 µM with NMR buffer. The respective fragment concentration was 428 µM with a final DMSO-d6 fraction of 5% (v/v). All measurements were performed in the presence of 500 µM ADP (in case of the ND1 domain) and 5 mM MgCl2. All data were analyzed using TopSpin 4.0.8 (Bruker Corporation, Billerica, MA, USA).

The target of a further assay is T2, p97-N (Homo sapiens, UniProt P55072).
T2 construct: Constructs of p97-N (aa 21-199, N-terminal 3 C protease-cleavable His6-tag); His6 (3C protease-cleavable) (N); made in house
T2 sequence (P55072 21-199): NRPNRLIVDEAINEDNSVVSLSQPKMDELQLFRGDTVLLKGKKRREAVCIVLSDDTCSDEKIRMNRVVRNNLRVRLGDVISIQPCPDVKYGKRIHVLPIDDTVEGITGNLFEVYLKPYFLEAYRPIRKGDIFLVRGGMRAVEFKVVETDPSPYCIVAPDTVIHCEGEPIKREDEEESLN
Briefly: BLI dose-response binding to the isolated N-domain of p97. The settings on record: for Kd: BLI steady state, 1:1 Langmuir model, errors from the fitting model; for LLEAT: based on KD for p97-N, heavy atom count and clogP; for ScoreBLI: based on sensorgrams from measurements with p97-N, about 1.0 or above = 1:1 binder; for LE: ligand efficiency based on KD for p97-N. As to the method: The selected 42 fragments of the screen with the N-domain were tested in a dose-dependent manner using concentrations from 1000.0 µM to 31.3 µM in 1:1 dilution steps. […] The sensorgrams of these fragments were fitted with a 1:1 Langmuir model to estimate their affinities and analyzed with respect to the following parameters: (i) The presence of a stationary phase; (ii) curve shapes according to either a homogeneous (1:1) or a heterogeneous (2:1) binding model, and (iii) justification of a 1:1 binding model via the obtained empirical constants kobs of the association phase. Based on these analyses, a ScoreBLI was calculated (for details see Supplementary Methods in the Supporting Information). The calculated ScoreBLI should be close to or above 1.0 for ligands that can be described with a 1:1 model, whereas ligands showing unspecific binding yield values << 1.0. Based on the ScoreBLI, we divided the fragments into a low-scoring (<0.70) and a high-scoring (≥0.70) group.
as §1, §2, §3
Definition of the quality score “ScoreBLI”
For selecting fragments for further analysis, the ScoreBLI was def ined as : […]
SSSSSSSSSSBBBBBB = rrmmmmmmmm 1:1rrmmmmmmmm 2:12 SSkkkkkkkk rmean 1:12 is the mean of the r2 coefficients of t he r egr es s ions of all association phases measured f or a given f ragment. The data were f itted with a 1:1 binding model:
RRPP = RRPPee ?1 − SS −(kkkkkkkk PP ) ? with RRPP the shift at the time t, k obs the empirical rate constant and RRPPee the shift at equilibrium.
In analogy, the rmean 2:12 was def ined by f itting with a 2:1 binding model:
RRPP = RRPPee 1 ?1 − SS −(kkkkkkkk1 PP) ? + RRPPee 2 ?1 − SS −(kkkkkkkk2 PP) ? A ligand f ollowing a 1:1 model would result in a good rmean2 f or both functions, whereas f or a lig and which is better described with a 2:1 model the rmean2 f or a 1:1 model would decrease, resulting in an overall decreased value.
In case of a 1:1 model the empirical rate constant k obs is proportional to the concentration of […]
kkkkkkkk = kkPP [LL ] + kkdd with ka t he association rate constant and kd t he dissociation rate constant. Theref ore, all observed empirical rate constants of a ligand were subjected to a linear regression model, which yielded the value r kobs2 .
A Langmuir model was used to es t im at e the affinities of the fragments. The use of this model requires that a chemical equilibrium is reached. To analyze whether this condition was met, the responses of the last 10 seconds of each association phase were f itted with a linear model. […]

In another assay the target is T3, N-domain of p97 (Homo sapiens, UniProt P55072).
T3 construct: additional STD measurements with the isolated N-domain were carried out; made in house
T3 sequence (P55072 21-199 limits assumed): as the sequence (P55072 21-199) above
Put plainly: STD-NMR build-up measurements with the isolated N-domain. In kind it is binding. As to the method: To obtain additional information about the putative binding mode of the selected fragments, full STD-NMR build-up curves were measured for the fragments TROLL2, TROLL7, TROLL8 and TROLL12 and the initial rates of STD build-up (STD0) were calculated. […] As expected, the saturation effects were higher for the ND1 construct compared to the isolated N-domain due to the stronger nuclear Overhauser effect (NOE) of the much larger protein. Because of water suppression, not all hydrogens of the selected fragments were experimentally accessible. For the remaining hydrogen atoms, different STD0 values were determined, indicating a defined orientation of the fragments upon binding to p97 (Supplementary Fig. 7). For TROLL2, TROLL7 and TROLL12 a clear dominance in the saturation of the protons at the hydrophobic aromatic parts of the molecules was visible.
For binding epitope mapping of selected fragments, the initial growth rates approach was used as described. For determination of the initial rate of STD build up (STD0) the STD intensities for seven saturation times (0.5, 0.75, 1.0, 1.5, 2.0, 3.0, 5.0 s) were measured for the ND1 as well as for the isolated N-domain and fitted by an exponential equation using R. The recycle delay (d1) was set to 5 s. For each fragment also a negative control without protein was measured with a saturation time of 5.0 s. Theoretical STD0 values on the basis of the obtained X-ray crystal structure as well as for representative mixed-solvent MD poses were calculated using the Complete Relaxation and Conformational Exchange Matrix Analysis of Saturation Transfer (CORCEMA-ST) software version 3.8[72] and ShiftX version 1.1[73]. Predicted and experimental STD-data were evaluated using the NOE R-factor (see Supplementary Methods in the Supporting Information).

Setting [3] is: BLI steady state, 1:1 Langmuir model, errors from the fitting model, read-out: KD p97-ND1.

Molecules are shown by their SMILES. Read-outs that look alike come from different tables or passages of the source.

T1 sequence (P55072 2-481): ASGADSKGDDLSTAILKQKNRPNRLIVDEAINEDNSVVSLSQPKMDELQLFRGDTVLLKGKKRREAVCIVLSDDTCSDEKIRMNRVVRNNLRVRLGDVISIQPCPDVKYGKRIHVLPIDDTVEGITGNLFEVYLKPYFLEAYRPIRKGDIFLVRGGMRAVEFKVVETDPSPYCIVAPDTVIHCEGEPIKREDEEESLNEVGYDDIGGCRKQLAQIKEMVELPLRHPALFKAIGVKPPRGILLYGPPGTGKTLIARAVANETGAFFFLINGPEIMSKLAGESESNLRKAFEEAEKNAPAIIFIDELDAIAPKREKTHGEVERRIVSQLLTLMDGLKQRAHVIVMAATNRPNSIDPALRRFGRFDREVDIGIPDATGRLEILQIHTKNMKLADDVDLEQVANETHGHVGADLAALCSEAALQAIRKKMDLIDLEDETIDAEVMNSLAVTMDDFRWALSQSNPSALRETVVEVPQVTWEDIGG

Take `Nc1ncnc2c1ncn2[C@@H]1O[C@H](COP(=O)(O)OP(=O)(O)O)[C@@H](O)[C@H]1O` [ADP, adenosine diphosphate, reference compound]: the Kd on p97 ND1 fragment (ND1 fragment spanning amino acids 1-458) was 0.2 µM; at p97 ND1 fragment (ND1 fragment spanning amino acids 1-480), 0.098 µM; on p97-ND1 [1] (Langmuir model, steady state measurements of a dilution series, read-out: KD of ADP to p97-ND1 (steady state)), 0.2 ± 0.014 µM; on p97-ND1 [1] (global exponential regression, 1:1 binding model, read-out: affinity of ADP to p97-ND1 (kinetic analysis)) it was 0.239 ± 0.009 µM. Besides, the ScoreBLI at p97-ND1 [1] (score evaluated with binding data for ADP) was found to be 1.02.

`O=C(O)Cc1cc2ccccc2[nH]1` [TROLL6]: on p97-ND1 [2], the “maximum STD-effect (ND1)” value is 72.5, the “mean STD-effect (ND1)” value stood at 66.5 and the “STD (maximum STD signal measured with p97-ND1)” value came out at 72.5%. Moreover, the Kd on p97-ND1 [1] (setting [3]) turned out to be 243 ± 16 µM. Also, on p97-N, the Kd was found to be 160 ± 22 µM, the LLEAT stood at 0.30, the ScoreBLI is recorded as 0.75 and the LE is 0.39.

For the compound `NCC(O)c1ccc(Cl)cc1` (centres unmarked) [TROLL7], on p97-ND1 [2], the “maximum STD-effect (ND1)” value is recorded as 37.3, the “mean STD-effect (ND1)” value turned out to be 34.5 and the “STD (maximum STD signal measured with p97-ND1)” value stood at 37.3%. Further, the “binding to the N-domain by STD-NMR” value at N-domain of p97 is reported as “confirmed the binding”. On p97-N, this compound yielded an LLEAT of 0.42, a ScoreBLI of 0.91 and an LE of 0.45.

As for `Cc1ccc(-c2csc3nc(CO)cn23)cc1` [TROLL14], on p97-ND1 [2], the “maximum STD-effect (ND1)” value was 67.4, the “mean STD-effect (ND1)” value is 55.4 and the “STD (maximum STD signal measured with p97-ND1)” value stood at 67.4%. Further, the Kd at p97-ND1 [1] (setting [3]) stood at 290 ± 33 µM. On p97-N, this compound had a Kd of 409 ± 61 µM, an LLEAT of 0.16, a ScoreBLI of 0.93 and an LE of 0.27.

As to `Nc1[nH]ncc1-c1ccc(Cl)cc1` [TROLL18], at p97-ND1 [2], the “maximum STD-effect (ND1)” value is recorded as 57.4, the “mean STD-effect (ND1)” value stood at 54.3 and the “STD (maximum STD signal measured with p97-ND1)” value is recorded as 57.4%. The Kd at p97-ND1 [1] (setting [3]) worked out at 445 ± 223 µM. At p97-N, this compound registered a Kd of 625 ± 89 µM, an LLEAT of 0.27, a ScoreBLI of 0.89 and an LE of 0.33.

Regarding `Nc1nc2c(s1)CN(Cc1ccccc1)CC2` [VIK20], on p97-ND1 [2], the “maximum STD-effect (ND1)” value was found to be 18.3, the “mean STD-effect (ND1)” value was 18.3 and the “STD (maximum STD signal measured with p97-ND1)” value amounted to 18.3%. In addition, the Kd on p97-ND1 [1] (setting [3]) worked out at 192 ± 92 µM. Besides, on p97-N, the Kd was determined as 147 ± 32 µM, the LLEAT came to 0.27, the ScoreBLI was 0.94 and the LE stood at 0.30.

Values taken from PMC9814400 (Communications Chemistry, 2022).
